Assay [1] has as its system CHEAL (Chenopodium album). In words: Greenhouse herbicidal test, post-emergence, CHEAL. The assay is classed as in vivo. The settings on record: Chenopodium album, application rate 1 kg/ha, scale 0 to 100, read-out: herbicidal activity against CHEAL. An excerpt:
(§1) The seeds of the test plants were sown separately for each species. For the post-emergence treatment, the test plants were first grown to a height of 2 to 5 cm, depending on the plant habit, and only then treated with the active ingredients which had been suspended or emulsified in water. For this purpose, the test plants were either sown directly and grown in the same containers, or they were first grown separately as seedlings and transplanted into the test containers a few days prior to treatment. Depending on the species, the plants were kept at 10-25° C. or 20-35° C. The test period extended over 8 to 9 days. During this time, the plants were tended, and their response to the individual treatments was evaluated. Evaluation was carried out using a scale from 0 to 100. 100 means no emergence of the plants, or complete destruction of at least the aerial moieties, and 0 means no damage, or normal course of growth. A good herbicidal activity is given at values of at least 70 and a very good herbicidal activity is given at values of at least 85. The plants used in the greenhouse experiments belonged to the following species: [table]

Assay [2] relates to AMARE (Amaranthus retroflexus). In words: Greenhouse herbicidal test, post-emergence, AMARE. The assay is classed as in vivo. The settings on record: Amaranthus retroflexus, application rate 1 kg/ha, scale 0 to 100, read-out: herbicidal activity against AMARE.
Text: as §1

Assay [3] concerns SETFA, AMARE, POLCO, CHEAL, GALAP. In words: Greenhouse herbicidal test, post-emergence, weed panel. The assay is classed as in vivo. The settings on record: application rate 1 kg/ha, scale 0 to 100.
Text: as §1

Assay [4] deals with Arabidopsis thaliana SHMT. In words: SHMT activity assay (ED50 SHMT), coupled with N5,N10-CH2-THF dehydrogenase, NADH at 340 nm. Format: biochemical. The settings on record: values given as upper bounds. In a few lines: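 His-tagged SHMT purified on Ni-NTA. NADH formation followed at 340 nm for 30 min; ED50 from inhibition of initial velocity.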
The test system of a further assay is GALAP (Galium aparine). In words: Greenhouse herbicidal test, post-emergence, GALAP. The assay is classed as in vivo. The settings on record: application rate 1 kg/ha, scale 0 to 100.
Text: as §1

The next assay relates to SETFA (Setaria faberi). In words: Greenhouse herbicidal test, post-emergence, SETFA. Format: in vivo. The note with it: application rate 1 kg/ha, scale 0 to 100, read-out: herbicidal activity against SETFA.
Text: as §1

Where [5] appears, read: Arabidopsis thaliana SHMT enzyme assay.

Take `COc1c(C#N)cc(C2(C3CCC3)C(C#N)=C(N)Oc3[nH]nc(C)c32)cc1C#N` (centres unmarked) [Compound 2.486]: the pest or weed control at 1000 g/ha in assay [1] is ≥ 70%; in assay [2], ≥ 85%. Further, the “herbicidal activity against at least three of the weeds SETFA, AMARE, POLCO, CHEAL, GALAP” value (from here on “herbicidal activity against … CHEAL, GALAP”) in assay [3] is given as “good or very good”. In addition, the EC50 in assay [4] (Table 2) is < 10 nM. The “herbicidal activity against GALAP” value with GALAP (Galium aparine) is on record as “very good (a very good herbicidal activity is given at values of at least 85)”.
For `Cc1n[nH]c2c1C(c1cc(C#N)cc(CCCC#N)c1)(C(C)C)C(C#N)=C(N)O2` (centres unmarked) [Compound 2.675], the pest or weed control at 1000 g/ha in assay [1] was ≥ 85%; in assay [2] it was ≥ 85%; in the assay on SETFA (Setaria faberi), ≥ 70%. For the same molecule, in assay [3], the “herbicidal activity against … CHEAL, GALAP” value was “good or very good”. The EC50 in assay [4] (setting [5]) is < 10 nM.
Take `Cc1n[nH]c2c1C(c1cc(Br)cc(N(C)C(=O)CC#N)c1)(C1CCC1)C(C#N)=C(N)O2` (centres unmarked) [Compound 2.729]: the pest or weed control at 1000 g/ha in assay [1] is ≥ 85%; in assay [2], ≥ 85%; with SETFA (Setaria faberi), ≥ 70%. The “herbicidal activity against … CHEAL, GALAP” value in assay [3] is given as “good or very good”. In addition, the EC50 in assay [4] (setting [5]) is < 10 nM.
Consider `Cc1n[nH]c2c1C(c1cc(C#N)cc(N(C)C(=O)CCCC#N)c1)(C(C)C)C(C#N)=C(N)O2` (centres unmarked) [Compound 2.664], for which the pest or weed control at 1000 g/ha (in assay [1]; in assay [2]; in the assay on SETFA (Setaria faberi)) was ≥ 85% each time. The “herbicidal activity against … CHEAL, GALAP” value in assay [3] was “good or very good”. Besides, in assay [4] (setting [5]), the EC50 was < 10 nM.
For `Cc1n[nH]c2c1C(c1cc(C#N)cc(N(C)C(=O)CC#N)c1)(C(C)C)C(C#N)=C(N)O2` (centres unmarked) [Compound 2.662], the pest or weed control at 1000 g/ha (in assay [1]; in assay [2]; in the assay with SETFA (Setaria faberi)) was ≥ 85% each time. Besides, the “herbicidal activity against … CHEAL, GALAP” value in assay [3] is on record as “good or very good”. Further, the EC50 in assay [4] (setting [5]) is < 10 nM.
In the case of `CC(=O)NCC(=O)N(C)c1cc(C#N)cc(C2(C3CCC3)C(C#N)=C(N)Oc3[nH]nc(C)c32)c1` (centres unmarked) [Compound 2.709], the pest or weed control at 1000 g/ha in assay [1] was ≥ 85%; in assay [2], ≥ 85%; with SETFA (Setaria faberi), ≥ 70%. Moreover, the “herbicidal activity against … CHEAL, GALAP” value in assay [3] is on record as “good or very good”. For the same molecule, the EC50 in assay [4] (setting [5]) was < 100 nM.
As to `Cc1n[nH]c2c1C(c1cc(OCC#N)cc(C(F)(F)F)c1)(C1CCC1)C(C#N)=C(N)O2` (centres unmarked) [Compound 2.470], the pest or weed control at 1000 g/ha (in assay [1]; in assay [2]; in the assay on SETFA (Setaria faberi)) was ≥ 85% throughout. For the same molecule, in assay [3], the “herbicidal activity against … CHEAL, GALAP” value was “good or very good”. Further, the EC50 in assay [4] (Table 2) is < 100 nM.

Usually EC50 stands for the concentration needed to bring the measured effect to its halfway point.

The values are drawn from US9480259B2, “Pyrazolopyrans having herbicidal and pharmaceutical properties” (BASF SE, priority 2012, dated 2016).
